How the values were obtained:
Type in all cases: in vivo
[1] = system: common ragweed (Ambrosia artemisizfolia L., AMBEL); test: Pre-emerge test, greenhouse herbicide activity screening; details: phytotoxicity rating 0-100, 14 days after application
In short: (§1)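 Sandy loam pots; pre-emerge: sown 1 d pre-spray, surface-watered after, then bottom-watered. Post-emerge: sown 8–21 d before, 2–3 leaf stage, + 0.25% v/v NIS, bottom-watered. Acetone, 187 l/ha track spray, 15–1000 g ai/ha. 0–100 injury score, day 14.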

[2] = system: ivyleaf morningglory (Ipomoea hederacea, IPOHE); test: as above; details: phytotoxicity rating 0-100, 14 days after application
In short: as §1

[3] = system: green foxtail (Setaria viridis, SETVI); test: as above; details: phytotoxicity rating 0-100, 14 days after application
In short: as §1

[4] = system: sicklepod (Cassia obtusifolia, CASOB); test: as above; details: phytotoxicity rating 0-100, 14 days after application
In short: as §1

[5] = system: lambsquarters (Chenopodium album, CHEAL); test: as above; details: phytotoxicity rating 0-100, 14 days after application
In short: as §1

[6] = system: velvetleaf (Abutilon theophrasti, ABUTH); test: as above; details: phytotoxicity rating 0-100, 14 days after application
In short: as §1

[7] = system: barnyardgrass (Echinochloa crus-galli, ECHCG); test: as above; details: phytotoxicity rating 0-100, 14 days after application
In short: as §1

[8] = system: large crabgrass (Digitaria sanguinalis, DIGSA); test: as above; details: phytotoxicity rating 0-100, 14 days after application
In short: as §1

[9] = system: johnsongrass (Sorghum halepense, SORHA); test: as above; details: phytotoxicity rating 0-100, 14 days after application
In short: as §1

[10] = system: redroot pigweed (Amaranthus retroflexus, AMARE); test: as above; details: phytotoxicity rating 0-100, 14 days after application
In short: (§2)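 Compounds in acetone were track-sprayed at 187 l/ha, 15–1000 g ai/ha, onto sandy loam pots. Pre-emerge seeds were sown one day before spraying, with surface watering afterwards. Post-emerge plants were at the 2–3 leaf stage and sprayed with 0.25% v/v non-ionic surfactant. Injury was rated 0–100 at 14 days.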

[11] = system: common ragweed (Ambrosia artemisizfolia L., AMBEL); test: Post-emerge test, greenhouse herbicide activity screening; details: post-emerge, 14 days after application, rating scale 0-100
In short: as §2

[12] = system: ivyleaf morningglory (Ipomoea hederacea, IPOHE); test: as above; details: post-emerge, 14 days after application, rating scale 0-100
In short: as §2

[13] = system: green foxtail (Setaria viridis, SETVI); test: as above; details: post-emerge, 14 days after application, rating scale 0-100
In short: as §2

[14] = system: sicklepod (Cassia obtusifolia, CASOB); test: as above; details: post-emerge, 63 g ai/ha, 14 days after application, rating scale 0-100
In short: as §2

[15] = system: lambsquarters (Chenopodium album, CHEAL); test: as above; details: post-emerge, 14 days after application, rating scale 0-100
In short: as §2

[16] = system: velvetleaf (Abutilon theophrasti, ABUTH); test: as above; details: post-emerge, 14 days after application, rating scale 0-100
In short: as §2

[17] = system: barnyardgrass (Echinochloa crus-galli, ECHCG); test: as above; details: post-emerge, 14 days after application, rating scale 0-100
In short: as §2

[18] = system: large crabgrass (Digitaria sanguinalis, DIGSA); test: as above; details: post-emerge, 14 days after application, rating scale 0-100
In short: as §2

[19] = system: johnsongrass (Sorghum halepense, SORHA); test: as above; details: post-emerge, 14 days after application, rating scale 0-100
In short: as §2

[20] = system: redroot pigweed (Amaranthus retroflexus, AMARE); test: as above; details: post-emerge, 14 days after application
In short: as §2

[21] = system: upland rice (Oryza sp., var. Tebonnet, RICE); test: Post-emerge test, crop safety; details: post-emerge, 14 days after application, rating scale 0-100
In short: as §1

[22] = system: field corn (Zea mays L., var. Dekalb 535, CORN); test: Post-emerge test, crop safety; details: post-emerge, 14 days after application, rating scale 0-100
In short: as §1

[23] = system: upland rice (Oryza sp., var. Tebonnet, RICE); test: Pre-emerge test, crop safety; details: crop damage rating 0-100, 14 days after application
In short: (§3)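 Compounds in acetone were track-sprayed at 15-1000 g ai/ha (187 l/ha) on sandy loam pots: pre-emerge one day after seeding, post-emerge at 2-3 leaf stage with 0.25% v/v non-ionic surfactant. Phytotoxicity was rated 14 days later on a 0 (no damage) to 100 (complete death) scale.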

[24] = system: field corn (Zea mays L., var. Dekalb 535, CORN); test: Pre-emerge test, crop safety; details: crop damage rating 0-100, 14 days after application
In short: as §3

Cn1c(C(F)(F)F)cc(=O)n(-c2ccc(Cl)cc2NC(=O)C2CC2)c1=O [2-204]
Pre-emerge Herbicidal Activity AMBEL ([1]; 63 g ai/ha): 50
Pre-emerge Herbicidal Activity AMBEL ([1]; 250 g ai/ha): 85
Pre-emerge Herbicidal Activity IPOHE ([2]; 63 g ai/ha): 50
Pre-emerge Herbicidal Activity IPOHE ([2]; 250 g ai/ha): 100
Pre-emerge Herbicidal Activity SETVI ([3]; 63 g ai/ha): 95
Pre-emerge Herbicidal Activity SETVI ([3]; 250 g ai/ha): 99
Pre-emerge Herbicidal Activity CASOB ([4]; 63 g ai/ha): 60
Pre-emerge Herbicidal Activity CASOB ([4]; 250 g ai/ha): 75
Pre-emerge Herbicidal Activity CHEAL ([5]; 63 g ai/ha): 70
Pre-emerge Herbicidal Activity CHEAL ([5]; 250 g ai/ha): 100
Pre-emerge Herbicidal Activity ABUTH ([6]; 63 g ai/ha): 99
Pre-emerge Herbicidal Activity ABUTH ([6]; 250 g ai/ha): 100
Pre-emerge Herbicidal Activity ECHCG ([7]; 63 g ai/ha): 20
Pre-emerge Herbicidal Activity ECHCG ([7]; 250 g ai/ha): 70
Pre-emerge Herbicidal Activity DIGSA ([8]; 63 g ai/ha): 35
Pre-emerge Herbicidal Activity DIGSA ([8]; 250 g ai/ha): 100
Pre-emerge Herbicidal Activity SORHA ([9]; 63 g ai/ha): 40
Pre-emerge Herbicidal Activity SORHA ([9]; 250 g ai/ha): 80
Pre-emerge Herbicidal Activity AMARE ([10]; 63 g ai/ha): 100
Pre-emerge Herbicidal Activity AMARE ([10]; 250 g ai/ha): 100
phytotoxicity rating AMBEL ([11]; 63 g ai/ha): 10
phytotoxicity rating AMBEL ([11]; 250 g ai/ha): 70
phytotoxicity rating IPOHE ([12]; 63 g ai/ha): 30
phytotoxicity rating IPOHE ([12]; 250 g ai/ha): 60
phytotoxicity rating SETVI ([13]; 63 g ai/ha): 0
phytotoxicity rating SETVI ([13]; 250 g ai/ha): 20
phytotoxicity rating CASOB [14]: 10
phytotoxicity rating CHEAL ([15]; 63 g ai/ha): 20
phytotoxicity rating CHEAL ([15]; 250 g ai/ha): 95
phytotoxicity rating ABUTH ([16]; 63 g ai/ha): 40
phytotoxicity rating ABUTH ([16]; 250 g ai/ha): 80
phytotoxicity rating ECHCG ([17]; 63 g ai/ha): 0
phytotoxicity rating ECHCG ([17]; 250 g ai/ha): 0
phytotoxicity rating DIGSA ([18]; 63 g ai/ha): 0
phytotoxicity rating DIGSA ([18]; 250 g ai/ha): 10
phytotoxicity rating SORHA ([19]; 63 g ai/ha): 0
phytotoxicity rating SORHA ([19]; 250 g ai/ha): 0
phytotoxicity rating AMARE ([20]; 63 g ai/ha, rating scale 0-100 (0 no damage, 100 complete death)): 50
phytotoxicity rating AMARE ([20]; 250 g ai/ha, rating scale 0-100): 70
phytotoxicity rating RICE (crop damage) ([21]; 63 g ai/ha): 0
phytotoxicity rating RICE (crop damage) ([21]; 250 g ai/ha): 30
phytotoxicity rating CORN (crop damage) ([22]; 63 g ai/ha): 5
phytotoxicity rating CORN (crop damage) ([22]; 250 g ai/ha): 10
Pre-emerge Herbicidal Activity RICE ([23]; 63 g ai/ha): 0
Pre-emerge Herbicidal Activity RICE ([23]; 250 g ai/ha): 30
Pre-emerge Herbicidal Activity CORN ([24]; 63 g ai/ha): 50
Pre-emerge Herbicidal Activity CORN ([24]; 250 g ai/ha): 70
